Among the data in patent publication US20060111368A1, “Phosphodiesterase inhibitor” (Kyowa Hakko Kogyo Co., Ltd., priority 2002, published 2006) are inhibition, IC50 and melting point values, retold here.

The target in one data set is T1, PDE10A (Homo sapiens, UniProt Q9Y233).
T1 construct: made in house; host or cells: Sf9 insect cells (baculovirus, pVL1393)
As to the kind of experiment: Activity of inhibiting PDE10A activity ([3H]cAMP decomposition inhibiting test). The format is biochemical. To be noted: for inhibition at 1 µM: read-out: [3H] cAMP decomposition inhibition rate (%); for IC50: read-out: IC50 (concentration at which to inhibit [3H]cAMP decomposition by 50%). As to the method: Activity of Inhibiting PDE10A Activity (^3H]cAMP Decomposition Inhibiting Test)
PCR was performed using DNAs having base sequences described in SEQ ID NO. 1 and SEQ ID NO. 2 as primers and human kidney cDNA as a template to prepare a plasmid containing amplified fragments. The plasmid was cleaved with restriction endonucleases Pst I and Xba I to obtain a Pst I-Xba I fragment of 0.7 kb.
Meanwhile, Est clone (Cosmo Bio, Tokyo) of GenBank, ACCESSION WO 4835 was cleaved with restriction endonucleases Kpn I and Pst I to obtain a Kpn I-Pst I fragment of 1.5 kb.
The resulting Pst I-Xba I fragment of 0.7 kb and Kpn I-Pst I fragment of 1.5 kb were subcloned in a Kpn I-Xba I site of pBluescript II KS(−) (STRATAGENE, La Jolla, Calif., USA),to construct a plasmid having a cDNA fragment completely including a catalyst region of PDE10A. Subsequently, the plasmid was cleaved with restriction endonucleases Kpn I and Not I to obtain a Kpn I-Not I fragment of 2.2 kb.
The resulting Kpn I-Not I fragment of 2.2 kb and a linker having a BamH I-Kpn I cleavage surface prepared by synthetic DNA having base sequences described in SEQ ID NOS. 3 and 4 were subcloned in a BamH I-Not I site of pVL1393 (PharMingen, San Diego, Calif., USA) to obtain a plasmid for preparation of Baculovirus. The plasmid contains a DNA encoding a peptide in which methionine, FLAG tag and a peptide having a 64th to 779th amino acid sequence of PDE10A [GenBank, ACCESSION NP 006652: Gene, vol. 234, p. 109 (1999), J. Biol. Chem., vol. 274, p. 18438 (1999)] are bound in the order.
The above gene recombinational manipulation was performed according to the method described in Molecular Cloning, 2nd edition, Cold Spring Harbor Laboratory Press, New York (1989).
The expression of PDE10A was conducted according to the Baculovirus expression vector system manual (PharMingen) using insect cells. As insect cells, Sf9 cells (Asahi Technoglass, Tokyo) were used. Sf9 cells were infected with a supernatant (co-transfection sup) containing PDE10A expression virus prepared according to the manual, and cultured at 27° C. for 4 days. The cells were recovered, washed with a phosphate-buffered saline (PBS), and then suspended in an extraction solution [20 mmol/L Tris-acetate (pH 7.5), 2 mmol/L MgCl2, 1 mmol/L dithiothreitol, 1 mmol/L ethylenediaminetetraacetic acid (EDTA), 0.25 mol/L sucrose, 250 unit/mL aprotinin, 40 μg/mL phenylmethylsulfonyl fluoride, and 1 μg/mL pepstatin A]. The cells were disrupted in ice with the maximum output under conditions of 5 seconds and five times using an ultrasonic disruption machine (TOMY model UR-200R, TOMY, Tokyo). A soluble fraction was obtained by centrifugation under 10,000 rpm of the fraction at 4° C. for 30 minutes, and the resulting soluble fraction was used for measuring the PDE activity.
The PDE activity was measured according to the method described in Methods Enzymol., vol. 159, p. 457 (1988).
Using [^3H]cAMP as a substrate, an enzyme reaction was conducted in a reaction solution containing 300 μL of 50 mmol/L N,N-bis (2-hydroxyethyl)-2-aminoethanesulfonic acid (pH 7.2), 1 mmol/L MgCl2 and 0.1 mmol/L ethylene glycol-bis (β-aminoethyl ether)-N,N,N′,N′-tetraacetic acid: EGTA). The concentration of the substrate was 0.2 μmol/L. To 95 μL of an enzyme dilute solution were added 5 μL of a test compound (DMSO solution) and 200 μL of a substrate solution. The mixture was incubated at 30° C. for 20 minutes, and then HCl was added to stop the reaction. The reaction product (5′-AMP) was converted to adenosine using 5′-nucleotidase, and separated the unreacted product from the reactant by DEAE-Sephadex A-25 column (Amersham Pharmacia Biotech, Uppsala, Sweden). The elute was moved to scintillation vials, 6 mL of Ultima Gold (Packard Instrument, Meriden, Conn., USA) was added, and the radioactivity was measured for 2 minutes using a liquid scintillation counter (Beckman LS6500, Beckman, Tokyo),. […]

[1] abbreviates: Test compound concentration 1 μmol/L, substrate [3H]cAMP 0.2 μmol/L.

Structures are written as SMILES. Counter-ions that a name gives are not always drawn. Like-named read-outs stand apart in the source and are kept apart here. A value given as a limit tells only on which side of the number the result lay.

As usually defined, the inhibition is how much of the control response was suppressed. As usually defined, the melting point is the temperature, or range, at which the solid turns liquid.

T1 sequence (Q9Y233 340-1055): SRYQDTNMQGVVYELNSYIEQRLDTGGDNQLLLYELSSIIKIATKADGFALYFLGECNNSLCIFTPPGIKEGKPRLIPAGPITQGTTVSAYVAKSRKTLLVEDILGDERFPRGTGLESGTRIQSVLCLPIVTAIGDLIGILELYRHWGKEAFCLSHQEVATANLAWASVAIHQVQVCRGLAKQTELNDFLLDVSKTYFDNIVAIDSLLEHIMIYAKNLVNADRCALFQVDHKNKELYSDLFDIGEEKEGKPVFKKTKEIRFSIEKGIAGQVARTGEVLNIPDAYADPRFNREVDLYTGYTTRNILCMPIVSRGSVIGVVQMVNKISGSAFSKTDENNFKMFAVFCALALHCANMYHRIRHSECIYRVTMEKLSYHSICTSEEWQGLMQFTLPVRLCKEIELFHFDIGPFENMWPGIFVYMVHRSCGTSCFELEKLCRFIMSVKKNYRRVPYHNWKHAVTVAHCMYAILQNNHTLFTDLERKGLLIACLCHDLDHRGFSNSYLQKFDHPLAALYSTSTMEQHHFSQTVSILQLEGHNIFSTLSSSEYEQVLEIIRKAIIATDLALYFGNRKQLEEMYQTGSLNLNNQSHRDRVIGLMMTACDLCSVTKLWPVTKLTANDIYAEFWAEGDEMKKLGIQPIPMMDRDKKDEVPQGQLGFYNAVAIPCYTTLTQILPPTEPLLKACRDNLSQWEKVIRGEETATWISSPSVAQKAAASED

As for `CC(=O)c1c(C)c(-c2ccc(-c3ccccc3-c3ccccc3)cc2)nc2ccc(F)cc12` [Compound 16, 4-Acetyl-6-fluoro-3-methyl-2-([1,1′:2′,11″-terphenyl]-4-yl)quinoline], the inhibition at 1 µM on PDE10A was found to be 80%.

As to `Cc1c(-c2ccc(-c3ccccc3C=O)cc2)nc2ccc(F)cc2c1C(=O)O` [Compound J, 6-Fluoro-2-(2′-formylbiphenyl-4-yl)-3-methylquinoline-4-carboxylic acid], the melting point is > 300 °C. In addition, on PDE10A (setting [1]), the inhibition at 1 µM is 99%. Also, the IC50 at PDE10A (substrate [3H]cAMP 0.2 μmol/L) is 0.016 µM.

Regarding `COC(=O)c1c(C)c(-c2ccc(-c3ccccc3-c3ccccc3)cc2)nc2ccc(F)cc12` [Compound 15, Methyl 6-fluoro-3-methyl-2-([1,1′:2′,1″-terphenyl]-4-yl)quinoline-4-carboxylate], the melting point is 164 to 165 °C.

As to `Cc1c(-c2ccc(-c3ccccc3CN3CCN(c4ccccc4)CC3)cc2)nc2ccc(F)cc2c1C(=O)O` [L, 6-Fluoro-3-methyl-2-[21-(4-phenylpiperazin-1-yl)methylbiphenyl-4-yl]quinoline-4-carboxylic acid], the melting point lay in the range of 189 to 190 °C. Besides, the inhibition at 1 µM on PDE10A (setting [1]) worked out at 99%. Moreover, the IC50 on PDE10A (substrate [3H]cAMP 0.2 μmol/L) came out at 0.021 µM.

The compound `COc1ccc(F)cc1-c1ccc(-c2nc3ccc(F)cc3c(CO)c2C)cc1` [Compound 7, 6-Fluoro-2-(5′-fluoro-2′-methoxybiphenyl-4-yl)-4-hydroxymethyl-3-methylquinoline] returned a melting point of 202 to 203 °C. The inhibition at 1 µM on PDE10A (setting [1]) amounted to 97%. Further, the IC50 on PDE10A (substrate [3H]cAMP 0.2 μmol/L) turned out to be 0.034 µM.

As for `CCOc1ccccc1-c1ccc(-c2nc3ccc(F)cc3c(CO)c2C)cc1` [Compound 3, 2-(21-Ethoxybiphenyl-4-yl)-6-fluoro-4-hydroxymethyl-3-methylquinoline], the melting point was 140 to 143 °C. Further, the inhibition at 1 µM on PDE10A (setting [1]) stood at 97%. On PDE10A (substrate [3H]cAMP 0.2 μmol/L), the IC50 was 0.076 µM.

`Cc1c(-c2ccc(-c3ccccc3C=O)cc2)nc2ccc(F)cc2c1CO` [Compound 9] returned a melting point of 192 to 194 °C.

`Cc1c(-c2ccc(-c3ccccc3-c3ccccc3)cc2)nc2ccc(F)cc2c1C` [Compound 18, 3,4-Dimethyl-6-fluoro-2-([1,1′:2′,1″-terphenyl]-4-yl)quinoline] yielded a melting point of 194 to 195 °C. Besides, the inhibition at 1 µM at PDE10A (setting [1]) came to 97%. In addition, the IC50 on PDE10A (substrate [3H]cAMP 0.2 μmol/L) is 0.0048 µM.

`Cc1c(-c2ccc(-c3ccccc3CNc3ccccc3)cc2)nc2ccc(F)cc2c1C(=O)O` [Compound N, 6-Fluoro-3-methyl-2-[(2′-phenylamino)methylbiphenyl-4-yl]quinoline-4-carboxylic acid] displayed a melting point of 222 to 224 °C. Further, the inhibition at 1 µM at PDE10A (setting [1]) was found to be 99%. Also, on PDE10A (substrate [3H]cAMP 0.2 μmol/L), the IC50 worked out at 0.013 µM.

In the case of `COc1ccc(F)cc1-c1ccc(-c2nc3ccc(F)cc3c(C(=O)O)c2C)cc1`, the melting point was > 300 °C.

For `CNCc1ccccc1-c1ccc(-c2nc3ccc(F)cc3c(CO)c2C)cc1` [Compound 10, 6-Fluoro-4-hydroxymethyl-3-methyl-2-[2′-(methylamino)methylbiphenyl-4-yl]quinoline], the melting point was in the range of 193 to 195 °C.

The compound `CCOc1ccc(-c2ccc(-c3nc4ccc(F)cc4c(CO)c3C)cc2)cc1` [Compound 5, 2-(4′-Ethoxybiphenyl-4-yl)-6-fluoro-4-hydroxymethyl-3-methylquinoline] gave a melting point of 211 to 212 °C.

Consider `Cc1c(-c2ccc(-c3ccccc3CN3CCOCC3)cc2)nc2ccc(F)cc2c1C(=O)O` [M, 6-Fluoro-3-methyl-2-(2′-morpholinomethylbiphenyl-4-yl)quinoline-4-carboxylic acid], for which the melting point lay within 163 to 165 °C. At PDE10A (setting [1]), the inhibition at 1 µM was found to be 98%. In addition, the IC50 at PDE10A (substrate [3H]cAMP 0.2 μmol/L) worked out at 0.027 µM.

On to `Cc1c(-c2ccc(Br)cc2)nc2ccc(F)cc2c1CO` [Compound 21, 2-(4-Bromophenyl)-6-fluoro-4-hydroxymethyl-3-methylquinoline], for which the melting point is 222 to 240 °C.

`Cc1c(-c2ccc(-c3ccccc3-c3ccccc3)cc2)nc2ccc(F)cc2c1C#N` [Compound 17, 6-Fluoro-3-methyl-2-([1,1′;2′,1″-terphenyl]-4-yl)quinoline-4-carbonitrile] showed a melting point of 153 to 155 °C. Moreover, the inhibition at 1 µM at PDE10A (setting [1]) was found to be 70%. Moreover, on PDE10A (substrate [3H]cAMP 0.2 μmol/L), the IC50 is 0.373 µM.

The compound `COc1ccc(-c2ccc(-c3nc4ccc(F)cc4c(CO)c3C)cc2)c(OC)c1` [Compound 8, 2-(2′,4′-dimethoxybiphenyl-4-yl)-6-fluoro-4-hydroxym ethyl-3-methylquinoline] showed a melting point of 205 to 207 °C. Moreover, the inhibition at 1 µM at PDE10A (setting [1]) was determined as 68%.

In the case of `Cc1c(-c2ccc(-c3ccccc3CN3CCN(c4ccccc4)CC3)cc2)nc2ccc(F)cc2c1CO` [Compound 11, 6-Fluoro-4-hydroxymethyl-3-methyl-2-[2′-(4-phenylpiperazin-1-yl)methylbiphenyl-4-yl]quinoline], the melting point fell in the range of 154 to 156 °C. On PDE10A (setting [1]), the inhibition at 1 µM was 90%. The IC50 at PDE10A (substrate [3H]cAMP 0.2 μmol/L) worked out at 0.173 µM.

In the case of `COC(=O)c1c(C)c(N2CCN(c3ccccc3OC)CC2)nc2ccc(F)cc12` [Compound 19, Methyl 6-Fluoro-2-[4-(2-methoxyphenyl)piperazin-1-yl]-3-methylquinoline-4-carboxylate], the melting point was in the range of 128 to 129 °C.

In the case of `CCOc1ccccc1-c1ccc(-c2nc3ccc(F)cc3c(C(=O)O)c2C)cc1` [I, 2-(2′-Ethoxybiphenyl-4-yl)-6-fluoro-3-methylquinoline-4-carboxylic acid], the inhibition at 1 µM at PDE10A (setting [1]) was found to be 99%. Further, the IC50 at PDE10A (substrate [3H]cAMP 0.2 μmol/L) amounted to 0.0055 µM.

Take `Cc1c(-c2ccc(-c3ccccc3CN3CCOCC3)cc2)nc2ccc(F)cc2c1CO` (as salt: hydrochloride) [Compound 12, 6-Fluoro-4-hydroxymethyl-3-methyl-2-(2′-morpholinomethylbiphenyl-4-yl)quinoline dihydrochloride]: the melting point was in the range of 190 to 192 °C.

As to `Cc1c(-c2ccc(Br)cc2)nc2ccc(F)cc2c1C(=O)O`, the melting point was > 300 °C.

For the compound `Cc1c(-c2ccc(-c3ccccc3F)cc2)nc2ccc(F)cc2c1CO` [Compound 6, 6-Fluoro-2-(2′-fluorobiphenyl-4-yl)-4-hydroxymethyl-3-methylquinoline], the inhibition at 1 µM on PDE10A (setting [1]) came to 91%. Moreover, on PDE10A (substrate [3H]cAMP 0.2 μmol/L), the IC50 is 0.098 µM.

On to `COc1ccc(-c2ccc(-c3nc4ccc(F)cc4c(C(=O)O)c3C)cc2)c(OC)c1`, for which the melting point is > 300 °C.

`COc1ccccc1N1CCN(c2nc3ccc(F)cc3c(CO)c2C)CC1` [Compound 20, 6-Fluoro-4-hydroxymethyl-2-[4-(2-methoxyphenyl)piperazin-1-yl]-3-methylquinoline] came in with a melting point of 190 to 191 °C.

On to `Cc1c(-c2ccc(-c3ccccc3-c3ccccc3)cc2)nc2ccc(F)cc2c1N`, for which the melting point was in the range of 227 to 229 °C.

`Cc1c(-c2ccc(-c3ccccc3CNCCO)cc2)nc2ccc(F)cc2c1CO` (as salt: hydrochloride) displayed a melting point of 203 to 205 °C.
